Measurements reported in ChEMBL document CHEMBL1151244, “Synthesis of A-seco derivatives of betulinic acid with cytotoxic activity” (J Nat Prod, 2004).

Assays:
Assay type in all cases: functional, cell-based
[1] = system: PC-3; test: Cytotoxicity against human PC3 cells after 72 hrs by MTT assay; details: PC-3, 72 h
[2] = system: CCRF-CEM; test: Cytotoxicity against human CEM cells after 72 hrs by MTT assay
[3] = system: HT-29; test: Cytotoxicity against human HT-29 cells after 72 hrs by MTT assay; details: HT-29, 72 h
[4] = system: K562; test: Cytotoxicity against human K562 cells after 72 hrs by MTT assay; details: K562, 72 h
[5] = system: K562; test: Cytotoxicity against paclitaxel-resistant human K562 cells after 72 hrs by MTT assay; details: K562, 72 h
[6] = system: MCF7; test: Cytotoxicity against human MCF7 cells after 72 hrs by MTT assay; details: MCF7, 72 h
[7] = system: DU-145; test: Cytotoxicity against human DU145 cells after 72 hrs by MTT assay; details: DU-145, 72 h
[8] = system: SK-MEL-2; test: Cytotoxicity against human SK-MEL-2 cells after 72 hrs by MTT assay; details: SK-MEL-2, 72 h
[9] = system: A549; test: Cytotoxicity against human A549 cells after 72 hrs by MTT assay; details: A549, 72 h

Structure (SMILES) | IC50 [1] [µM] | IC50 [2] [µM] | IC50 [3] [µM] | IC50 [4] [µM] | IC50 [5] [µM] | IC50 [6] [µM] | IC50 [7] [µM] | IC50 [8] [µM] | IC50 [9] [µM]
C=C(C)[C@@H]1CC[C@]2(C(=O)OC(=O)[C@]34CC[C@@H](C(=C)C)[C@@H]3[C@H]3CC[C@@H]5[C@@]6(C)CC[C@H](OC(C)=O)C(C)(C)[C@@H]6CC[C@@]5(C)[C@]3(C)CC4)CC[C@]3(C)[C@H](CC[C@@H]4[C@@]5(C)CC[C@H](OC(C)=O)C(C)(C)[C@@H]5CC[C@]43C)[C@@H]12 | 187 | 240 | 173 | 104 | 242 | – | – | – | –
C=C(C)[C@@H]1CC[C@]2(CO)CC[C@]3(C)[C@H](CC[C@@H]4[C@@](C)(CCO)[C@H](C(C)(C)CO)CC[C@]43C)[C@@H]12 | 49 | 20 | 11 | 9 | 11 | – | – | – | –
C=C(C)[C@@H]1CC[C@]2(C(=O)OC)CC[C@]3(C)[C@H](CC[C@@H]4[C@@]5(C)CC[C@H](OC(C)=O)C(C)(C)[C@@H]5CC[C@]43C)[C@@H]12 | 250 | 16 | 250 | 250 | 250 | – | – | – | –
C=C(C)[C@@H]1CC[C@]2(C(=O)OC)CC[C@]3(C)[C@H](CC[C@@H]4[C@@]5(C)CC(=O)OC(=O)C(C)(C)[C@@H]5CC[C@]43C)[C@@H]12 | 89 | 7 | 12 | 29 | 12 | – | – | – | –
C=C(C)[C@@H]1CC[C@]2(C(=O)O)CC[C@]3(C)[C@H](CC[C@@H]4[C@@]5(C)C=C(O)C(=O)C(C)(C)[C@@H]5CC[C@]43C)[C@@H]12 | 10 | 4 | 6 | 6 | 11 | 14 | 23 | 23 | 10
C=C(C)[C@@H]1CC[C@]2(C(=O)OC)CC[C@]3(C)[C@H](CC[C@@H]4[C@@]5(C)C=C(OC(C)=O)C(=O)C(C)(C)[C@@H]5CC[C@]43C)[C@@H]12 | 98 | 91 | 46 | 60 | 25 | – | – | – | –
C=C(C)[C@@H]1CC[C@]2(C(=O)O)CC[C@]3(C)[C@H](CC[C@@H]4[C@@]5(C)CC(=O)OC(=O)C(C)(C)[C@@H]5CC[C@]43C)[C@@H]12 | – | 101 | – | – | – | – | – | – | –
C=C(C)[C@@H]1CC[C@]2(C(=O)O)CC[C@]3(C)[C@H](CC[C@@H]4[C@@]5(C)CC[C@H](OC(C)=O)C(C)(C)[C@@H]5CC[C@]43C)[C@@H]12 | 17 | 200 | 24 | 18 | 19 | – | – | – | –
C=C(C)[C@@H]1CC[C@]2(C(=O)OC)CC[C@]3(C)[C@H](CC[C@@H]4[C@@](C)(CC(=O)OC)[C@H](C(C)(C)C(=O)OC)CC[C@]43C)[C@@H]12 | 245 | 250 | 99 | 104 | 76 | – | – | – | –
C=C(C)[C@@H]1CC[C@]2(C(=O)OC)CC[C@]3(C)[C@H](CC[C@@H]4[C@@]5(C)CCC(=O)C(C)(C)[C@@H]5CC[C@]43C)[C@@H]12 [METHYL BETULONATE] | 250 | – | 250 | 239 | 250 | – | – | – | –
C=C(C)[C@@H]1CC[C@]2(C(=O)O)CC[C@]3(C)[C@H](CC[C@@H]4[C@@]5(C)C=C(OC(C)=O)C(=O)C(C)(C)[C@@H]5CC[C@]43C)[C@@H]12 | 11 | 20 | 7 | 5 | 16 | 17 | 18 | 24 | 11
C=C(C)[C@@H]1CC[C@]2(C(=O)O)CC[C@]3(C)[C@H](CC[C@@H]4[C@@]5(C)[C@@H](O)OC(=O)C(C)(C)[C@@H]5CC[C@]43C)[C@@H]12 | 79 | 96 | 58 | 81 | 81 | – | – | – | –
C=C(C)[C@@H]1CC[C@]2(C(=O)O)CC[C@]3(C)[C@H](CC[C@@H]4[C@@]5(C)CC[C@H](O)C(C)(C)[C@@H]5CC[C@]43C)[C@@H]12 [BETULINIC ACID] | 91 | 27 | 89 | 56 | 112 | 143 | 196 | 21 | 146
C=C(C)[C@@H]1CC[C@]2(C(=O)OC)CC[C@]3(C)[C@H](CC[C@@H]4[C@@]5(C)CC[C@H](O)C(C)(C)[C@@H]5CC[C@]43C)[C@@H]12 [METHYL BETULINATE] | 109 | 150 | 61 | 71 | 65 | – | – | – | –
C=C(C)[C@@H]1CC[C@]2(C(=O)OC)CC[C@]3(C)[C@H](CC[C@@H]4[C@@]5(C)C=C(OC)C(=O)C(C)(C)[C@@H]5CC[C@]43C)[C@@H]12 | 20 | 5 | 19 | 11 | 10 | – | – | – | –
C=C(C)[C@@H]1CC[C@]2(C(=O)OC(C)=O)CC[C@]3(C)[C@H](CC[C@@H]4[C@@]5(C)CC[C@H](OC(C)=O)C(C)(C)[C@@H]5CC[C@]43C)[C@@H]12 | 93 | 22 | 110 | 88 | 108 | – | – | – | –
C=C(C)[C@@H]1CC[C@]2(C(=O)O)CC[C@]3(C)[C@H](CC[C@@H]4[C@@](C)(CC(=O)O)[C@H](C(C)(C)C(=O)O)CC[C@]43C)[C@@H]12 | 169 | 250 | 219 | 145 | 250 | – | – | – | –
C=C(C)[C@@H]1CC[C@]2(C(=O)OC)CC[C@]3(C)[C@H](CC[C@@H]4[C@@]5(C)C=C(O)C(=O)C(C)(C)[C@@H]5CC[C@]43C)[C@@H]12 | 10 | 23 | 6 | 8 | 8 | 6 | 9 | 11 | 11
C=C(C)[C@@H]1CC[C@]2(C(=O)OC)CC[C@]3(C)[C@H](CC[C@@H]4[C@@]5(C)[C@@H](O)OC(=O)C(C)(C)[C@@H]5CC[C@]43C)[C@@H]12 | 116 | 250 | 65 | 119 | 85 | – | – | – | –
C=C(C)[C@@H]1CC[C@]2(C(=O)OC(C)=O)CC[C@]3(C)[C@H](CC[C@@H]4[C@@]5(C)CC(=O)OC(=O)C(C)(C)[C@@H]5CC[C@]43C)[C@@H]12 | – | 6 | – | – | – | – | – | – | –
C=C(C)[C@@H]1CC[C@]2(COC(C)=O)CC[C@]3(C)[C@H](CC[C@@H]4[C@@](C)(CCOC(C)=O)[C@H](C(C)(C)COC(C)=O)CC[C@]43C)[C@@H]12 | – | 250 | – | – | – | – | – | – | –
C=C(C)[C@@H]1CC[C@]2(C(=O)O)CC[C@]3(C)[C@H](CC[C@@H]4[C@@]5(C)CCC(=O)C(C)(C)[C@@H]5CC[C@]43C)[C@@H]12 [BETUNOLIC ACID] | – | 17 | – | – | 17 | 29 | 36 | – | –
C=C(C)[C@@H]1CC[C@]2(C(=O)OC)CC[C@]3(C)[C@H](CC[C@@H]4[C@@](C)(CC(=O)O)[C@H](C(C)(C)C(=O)O)CC[C@]43C)[C@@H]12 | 63 | 113 | 88 | 77 | 75 | – | – | – | –
